Data from US10266545B2, “Coumarin derivative as antiviral agent, pharmaceutical composition thereof, its preparation and use” (I-NOVA MEDICINSKA ISTRAZIVANJA D.O.O., priority 2016, dated 2019).

Target: T1, rRT (exogenous recombinant RT) (Human immunodeficiency virus type 1 group M subtype B, UniProt P03366)
T1 construct: recombinant RT was added with a known activity and concentration; purchased Cavidi (Sweden) 52010
Experiment: Direct effect on exogenous recombinant RT (rRT), HS-Lenti RT activity kit
Assay type: biochemical, HIV-1
Conditions: for inhibition at 10 µM: 0.01 mM
Experimental: The RT test was performed by using HS-Lenti RT activity kit test provided by Cavidi (Sweden) for direct study of inhibitory effect of rRT. HS-Lenti RT activity assay provides an opportunity for direct determination of the effects of the test compound 1 and the control compound 2 on the activity of rRT, of known concentrations. […] Such opportunity is provided by the test kit manufacturer, see literature reference 10: • 10) X. Shao, D. Ekstrand, R. Bhikhabhai, C. Kallander, J. Gronowitz: A non-radioactive microtitre plate reverse transcriptase (RT) assay, based on immobilized template, for screening of RT activity inhibitors and evaluation of the mode of action, Antiviral Chem. Chemother. 8 (1997) 149-159.
For the control, commonly used substance with proven antiviral activity was employed; in our case, we used Kivexa, which contains 600 mg Abacavir and 300 mg of Lamivudine, which is applied in clinical practice as nucleoside inhibitor of RT. In the presence of RT inhibition in the test, it is concluded that not only the replication of the virus is inhibited, but also probably the target of the inhibitory effect is RT itself. To confirm this conclusion, it is necessary that percentage (%) of inhibition of the RT coincides with the % inhibition in the microtiter MTT assay. […] After incubation, we determined whether the activity of the enzyme shall be amended (inhibited) by action of the compounds 1 or 2. […]
The procedure was as follows: In wells of a company plate coated with a matrix poly-rA, are added reaction mixture to RT, the primer containing oligo-dT, Brd UTP as a source of dNTP and prepared at buffer of the commercial test 10× more concentrated (as reaction mixture was in a volume of 100 μl) of the test substance dilutions. […] Manifestation of the enzyme reaction was carried out using a suitable substrate for alkaline phosphatase for 30 minutes and then the absorbance was detected at a wavelength of 405 nm. […]

| Compound | inhibition at 10 µM | inhibition at 5 µM (0.005 mM) |
| --- | --- | --- |
| O=c1oc2cc(O)c(O)cc2c(O)c1-c1coc2c1c(=O)oc1cc(O)c(O)cc12 [Compound 2, 7,8-dihydroxy-3-(4,6,7-trihydroxy-2-oxo-2H-chromen-3-yl)-4H-furo[3,2-c]chromen-4-one, reference compound] | 0% |  |
| O=c1oc2cc(O)cc(O)c2c(O)c1-c1coc2c1c(=O)oc1cc(O)cc(O)c12 [Compound 1, 7,9-dihydroxy-3-(4,5,7-trihydroxy-2-oxo-2H-chromene-3-yl)-4H-furo[3,2-c]chromen-4-one] | 72.8% | 0% |
